Measurements reported in patent US20230218654A1, “COMPOSITIONS AND METHODS FOR TREATING HYPERGLYCEMIA IN TYPE-2 DIABETES” (The Board of Regents of the university of Oklahoma, priority 2020, published 2023).
“Also recorded” adds a separate entry of the source.

What was measured:
Assay type in all cases: cell-based
[1] = test system: primary mouse hepatocytes; test: Western blot of insulin signaling in primary mouse hepatocytes; conditions: 500 nM, 1 h
Procedure: MLN4924 enhances hepatocyte insulin responsiveness by delaying feedback IRS degradation (related to FIG. 18A). Cells were serum starved for 16 h then pre-treated with 500 nM MLN4924 for 1 h followed by 100 nM insulin stimulation in time course. Blots are representative of 2 independent experiments.
(§1) AML12 cells were a generous gift from Dr. Yanqiao Zhang (Northeast Ohio Medical University). AML12 cells were cultured in DMEM medium supplemented with a mixture of insulin-transferrin-selenium (#41400-045, ThermoFisher, Waltham, MA). For experiments, cells were cultured in serum free medium overnight before various treatments were initiated. The siGENOME SMARTpool siRNA and siControl were purchased from Dharmacon, Inc. (Lafayette, CO). The siRNA was transfected with Lipofectamine RNAiMAX reagent in a final concentration of 25 nM recommended by the manufacturer. Primary human hepatocytes and primary mouse hepatocytes were obtained from the Cell Isolation Core at the University of Kansas Medical Center. Treatments were initiated on the same day of isolation and completed within 24 hours.

[2] = test system: AML12 mouse hepatocytes; test: Western blot of insulin signaling and cullin neddylation in AML12 cells
Procedure: MLN4924 increases IRS protein and AKT activation in the presence of insulin. Mouse AML 12 hepatocytes were serum starved for 16 h. Cells were then pre-treated with MLN4924 for 1 h followed by 100 nM insulin stimulation for 4 h. Western blot was then performed to evaluate insulin signaling activation.
AML 12 cells were serum starved for 16 h. Cells were then pre-treated with 500 nM MLN4924 or vehicle (DMSO) for 1 h, followed by 100 µg/ml cycloheximide (CHX) and 100 nM insulin treatment.
AML12 cells were serum starved for 16 h. Cells were then pre-treated with 500 nM MLN4924 for 1 h followed by 100 nM insulin stimulation in time course.
FIG. 18A is a Western blot analysis showing that MLN4924 enhances hepatocyte insulin responsiveness (signaling) by delaying feedback IRS degradation. AML12 cells were serum starved for 16 h. Cells were then pre-treated with MLN4924 for 1 h followed by insulin stimulation for 4 h.
FIG. 18D is a Western blot analysis of insulin signaling in AML12 cells serum starved for 16 h, then pre-treated with 500 nM MLN4924 for 1 h followed by 100 nM insulin stimulation in time course.
FIG. 18E is a Western blot analysis of AML12 cells serum starved for 16 h then pre-treated with 500 nM MLN4924 or vehicle (DMSO) for 1 h, followed by 100 µg/ml cycloheximide (CHX) and 100 nM insulin treatment. Cells were collected at the indicated time for Western blotting.
FIG. 18F is a Western blot analysis of insulin signaling in AML12 cells serum starved for 16 h then pre-treated with 100 nM rapamycin and 500 nM MLN4924 as indicated for 1 h followed by additional 2 h incubation in the presence or absence of 100 nM insulin. Blots are representative of 2-4 independent experiments.
(§2) FIG. 20 is a Western blot analysis showing that MLN4924 enhances hepatocyte insulin responsiveness in cells treated with wortmannin by delaying feedback IRS degradation (related to FIG. 18A). AML12 cells were serum starved for 16 h then pre-treated with 1 µM wortmannin (Wort) and 500 nM MLN4924 as indicated for 1 h followed by additional 2 h incubation in the presence or absence of 100 nM insulin. Blots are representative of 2 independent experiments.
as §2, with “21” for “20”, “Torin 1” for “wortmannin”, “250 nM Torin1” for “1 µM wortmannin (Wort)”
MLN4924 and TAS4464 were purchased from MedChemExpress (MCE, Monmouth Junction, NJ). For cell treatment, MLN4924 and TAS4464 were dissolved in DMSO. Cells were serum starved overnight and then treated with MLN4924, TAS4464 and/or insulin as indicated. For injection in mice, MLN4924 and TAS4464 were first dissolved in DMSO, which was further suspended in 10% (2-hydroxypropyl)-β-cyclodextrin (Sigma, St. Louis, MO). The final solution contains 1% DMSO. The subcutaneous injection volume is 200 µl/mouse.
Protein lysates were prepared in RIPA buffer containing 1% SDS and protease inhibitors on ice for 1 h followed by brief sonication. After centrifugation, supernatant was used for SDS-PAGE and immunoblotting.
as §1, with “Primary human hepatocytes and primary mouse hepatocytes were obtained from the Cell Isolation Core at the University of Kansas Medical Center. Treatments were initiated on the same day of isolation and completed within 24 hours.” left out

[3] = test system: differentiated C2C12 myocytes; test: Glucose uptake assay; conditions: 500 nM MLN4924 6 h, 100 nM insulin 1 hour
Procedure: Differentiated C2C12 myocytes were treated with MLN4924 (500 nM) and then stimulated with 100 nM insulin as indicated. Glucose uptake into the cells was measured. Glucose uptake into the cells was increased in the presence of MLN4924.Results are mean+/-SD of 5 replicates. “* ”, p less than 0.05, vs Vehicle-treated control.“#”, vs. insulin treated, p less than 0.05.
C2C12 myoblast cells were cultured in DMEM medium supplemented with 10% FBS. When cells grow to 60% confluency, differentiation into myocytes was induced by culturing cells in DMEM supplemented with 2% horse serum for 4-6 days. Cells were then serum starved overnight and treated with 500 nM MLN4924 or DMSO for 6 h and then stimulated with 100 nM insulin for 1 hour as indicated. Glucose uptake was measured with a Glucose uptake Glo^tm assay kit that was purchased from Promega (Madison, WI).

[4] = insulin stimulated, MLN4924 pre-treatment 1 h, insulin 4 h

Question: Which IRS protein abundance ([1]; then 100 nM insulin) does the source give for `NS(=O)(=O)OC[C@@H]1C[C@@H](n2ccc3c(N[C@H]4CCc5ccccc54)ncnc32)C[C@@H]1O` [MLN4924, ((1S,2S,4R)-4-(4-((1S)-2,3-dihydro-1H-inden-1-ylamino)-7H-pyrrolo[2,3-d]pyrimidin-7-yl)-2-hydroxycyclopentyl) methyl sulfamate] here?
Answer: Its IRS protein abundance is “increased IRS protein abundance”.

Question: What about the “insulin-stimulated AKT activation” value ([1]; then 100 nM insulin) of the same compound?
Answer: Its value is “increased IRS protein abundance and insulin-stimulated AKT activation”.

Question: And the insulin signaling desensitization ([1]; then 100 nM insulin in time course)?
Answer: Its insulin signaling desensitization is “significantly delayed cellular insulin desensitization; also recorded: significantly delayed insulin signaling desensitization”.

Question: What about the “IRS protein in the presence of rapamycin” value ([2]; 500 nM MLN4924 + 100 nM rapamycin, 100 nM insulin) of the same compound?
Answer: The value was “did not further increase IRS protein”.

Question: And the “IRS1 S307 phosphorylation” value ([2]; 500 nM, 100 nM insulin time course)?
Answer: Its value is “also higher”.

Question: What about the “insulin signaling desensitization (IRS1(Y612), AKT(S473))” value ([2]; 500 nM, 1 h, then 100 nM insulin in time course) of the same compound?
Answer: The value was “significantly delayed cellular insulin desensitization; also recorded: significantly delayed insulin signaling desensitization”.

Question: What about the “insulin-induced IRS degradation” value ([2]; 500 nM, 100 µg/ml cycloheximide (CHX) and 100 nM insulin) of the same compound?
Answer: Its value is “significantly delayed”.

Question: And the “further MLN4924-mediated IRS enrichment and insulin sensitization” value ([2]; Cul1 or Cul3 knockdown cells, 500 nM)?
Answer: Its value is “limited but not fully abolished”.

Question: And the “AKT S473 phosphorylation” value [2, 4]?
Answer: The value was “increased AKT S473 phosphorylation”.

Question: And the “IR (Y1150) phosphorylation” value [2, 4]?
Answer: The value was “but not IR (Y1150) phosphorylation”.

Question: What about the “IRS1(Y612) phosphorylation” value [2, 4] of the same compound?
Answer: The value was “enhanced IRS1(Y612) phosphorylation”.

Question: What about the “total IRS1 and IRS2 protein” value [2, 4] of the same compound?
Answer: Its value is “dose-dependently increased total IRS1 and IRS2 protein”.

Question: What about the “further IRS protein stabilization caused by MLN4924” value ([2]; simultaneous knockdown of Cul1 and Cul3, 500 nM) of the same compound?
Answer: The value was “largely abolished”.

Question: What about the glucose uptake [3] of the same compound?
Answer: The glucose uptake was “increased glucose uptake”.
